Consider 22 compounds from patent publication US20260132132A1, “3A,4,5,6-TETRAHYDRO-1 H-PYRAZOLO[3,4-C]PYRIDIN-7(7AH)-ONE DERIVATIVES AS FACTOR XIIA INHIBITORS” (KALVISTA PHARMACEUTICALS LIMITED, priority 2022, published 2026).

The assay has as its target T1, Human Factor XIIa (hFXIIa) (Homo sapiens, UniProt P00748).
T1 construct: purchased Enzyme Research Laboratories
T1 sequence (P00748 373-615 limits assumed): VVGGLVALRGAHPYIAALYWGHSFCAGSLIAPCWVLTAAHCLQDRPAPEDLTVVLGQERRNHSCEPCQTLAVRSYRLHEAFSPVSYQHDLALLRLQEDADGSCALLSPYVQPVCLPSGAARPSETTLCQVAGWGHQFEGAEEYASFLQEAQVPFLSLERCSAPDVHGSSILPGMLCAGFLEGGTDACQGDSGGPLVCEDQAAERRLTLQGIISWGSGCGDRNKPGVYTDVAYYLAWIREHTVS
T1 sequence (P00748 20-372 partner limits assumed): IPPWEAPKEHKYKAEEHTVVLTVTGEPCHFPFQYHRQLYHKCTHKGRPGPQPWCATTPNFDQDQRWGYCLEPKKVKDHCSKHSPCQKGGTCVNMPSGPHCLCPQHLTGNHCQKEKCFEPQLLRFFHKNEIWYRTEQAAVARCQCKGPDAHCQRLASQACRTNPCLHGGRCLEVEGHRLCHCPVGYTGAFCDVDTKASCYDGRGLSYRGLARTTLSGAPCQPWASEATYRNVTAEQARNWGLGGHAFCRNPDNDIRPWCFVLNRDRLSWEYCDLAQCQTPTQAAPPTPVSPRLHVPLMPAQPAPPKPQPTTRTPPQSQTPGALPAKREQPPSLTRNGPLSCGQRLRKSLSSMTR
Nature of the assay: Determination of Human Factor XIIa (hFXIIa) inhibition, fluorogenic substrate IC50 assay. The conditions noted are these: fluorogenic substrate H-DPro-Phe-Arg-AFC at Km, 25° C., read-out: Human FXIIa IC50. Type of assay: biochemical. The procedure: Determination of Human Factor XIIa (hFXIIa) inhibition
The Km for the cleavage of the substrate by hFXIIa was determined by standard transformation of the Michaelis-Menten equation, with subsequent inhibition assays performed at substrate Km concentration.
`CN1CCc2ccc(N3CCc4c(C(=O)NC5(C)CCOCC5)nn(-c5cccc(Cl)c5)c4C3=O)cc2C1` [Example 1064, 1-(3-chlorophenyl)-6-(2-methyl-1,2,3,4-tetrahydroisoquinolin-7-yl)-N-(4-methyltetrahydro-2H-pyran-4-yl)-7-oxo-4,5,6,7-tetrahydro-1H-pyrazolo[3,4-c]pyridine-3-carboxamide]: the IC50 was in the range of 300 to 1000 nM. To `CN(C)C(=O)c1cncc(N2CCc3c(C(=O)NCC4CC4)nn(-c4cccc(Cl)c4)c3C2=O)c1` [Example 1279, 1-(3-chlorophenyl)-N-(cyclopropylmethyl)-6-(5-(dimethylcarbamoyl)pyridin-3-yl)-7-oxo-4,5,6,7-tetrahydro-1H-pyrazolo[3,4-c]pyridine-3-carboxamide] belongs 10000 to 40000 nM; to `O=C(NCC1CC1)c1nn(-c2cccc(Cl)c2)c2c1CCN(c1cccc(CN3CCC(F)C3)c1)C2=O` (stereo not shown) [Example 1243, 1-(3-chlorophenyl)-N-(cyclopropylmethyl)-6-(3-((3-fluoropyrrolidin-1-yl)methyl)phenyl)-7-oxo-4,5,6,7-tetrahydro-1H-pyrazolo[3,4-c]pyridine-3-carboxamide], 1000 to 3000 nM. As to `CN1CCc2ccc(N3CCc4c(CO)nn(-c5cccc(Cl)c5)c4C3=O)cc2C1=O` [Example 1183, 7-(1-(3-chlorophenyl)-3-(hydroxymethyl)-7-oxo-1,4,5,7-tetrahydro-6H-pyrazolo[3,4-c]pyridin-6-yl)-2-methyl-3,4-dihydroisoquinolin-1(2H)-one], the IC50 lay within 1000 to 3000 nM. For the compound `CN(C)C(=O)c1cnnc(N2CCc3c(C(=O)NCC4CC4)nn(-c4cccc(Cl)c4)c3C2=O)c1` [Example 1298, 1-(3-chlorophenyl)-N-(cyclopropylmethyl)-6-(5-(dimethylcarbamoyl)pyridazin-3-yl)-7-oxo-4,5,6,7-tetrahydro-1H-pyrazolo[3,4-c]pyridine-3-carboxamide], the IC50 is 3000 to 10000 nM. To `COCC(C)N1CCc2ccc(N3CCc4c(C(=O)NCC5CC5)nn(-c5cccc(Cl)c5)c4C3=O)cc2C1` (stereo not shown) [Example 1060, 1-(3-chlorophenyl)-N-(cyclopropylmethyl)-6-(2-(1-methoxypropan-2-yl)-1,2,3,4-tetrahydroisoquinolin-7-yl)-7-oxo-4,5,6,7-tetrahydro-1H-pyrazolo[3,4-c]pyridine-3-carboxamide] belongs 100 to 300 nM; to `CN1CCc2ccc(N3CCc4c(C(=O)NCC5CC5)nn(-c5cc(Cl)ccn5)c4C3=O)cc2C1=O` [Example 2016, 1-(4-chloropyridin-2-yl)-N-(cyclopropylmethyl)-6-(2-methyl-1-oxo-1,2,3,4-tetrahydroisoquinolin-7-yl)-7-oxo-4,5,6,7-tetrahydro-1H-pyrazolo[3,4-c]pyridine-3-carboxamide], 3000 to 10000 nM.

On to `CCN1Cc2cc(N3CCc4c(C(=O)NCC5CC5)nn(-c5cccc(Cl)c5)c4C3=O)ccc2C(C)(C)C1` [Example 1082, 1-(3-chlorophenyl)-N-(cyclopropylmethyl)-6-(2-ethyl-4,4-dimethyl-1,2,3,4-tetrahydroisoquinolin-7-yl)-7-oxo-4,5,6,7-tetrahydro-1H-pyrazolo[3,4-c]pyridine-3-carboxamide], for which the IC50 is 300 to 1000 nM. Regarding `CN1CCc2ccc(N3CCc4c(C(=O)N5CCOCC5)nn(-c5cccc(Cl)c5)c4C3=O)cc2C1` [Example 1067, 1-(3-chlorophenyl)-6-(2-methyl-1,2,3,4-tetrahydroisoquinolin-7-yl)-3-(morpholine-4-carbonyl)-1,4,5,6-tetrahydro-7H-pyrazolo[3,4-c]pyridin-7-one], the IC50 was in the range of 1000 to 3000 nM. As for `CN1CCc2ccc(N3CCc4c(C(=O)NCC5CCO5)nn(-c5cccc(Cl)c5)c4C3=O)cc2C1` (stereo not shown) [Example 1045, 1-(3-chlorophenyl)-6-(2-methyl-1,2,3,4-tetrahydroisoquinolin-7-yl)-N-(oxetan-2-ylmethyl)-7-oxo-4,5,6,7-tetrahydro-1H-pyrazolo[3,4-c]pyridine-3-carboxamide], the IC50 is 300 to 1000 nM. To `Cc1cc(CNC(=O)c2nn(-c3cccc(Cl)c3)c3c2CCN(c2ccc4c(c2)C(=O)N(CC2CCCO2)CC4)C3=O)nn1C` (stereo not shown) [Example 1293, 1-(3-chlorophenyl)-N-((1,5-dimethyl-1H-pyrazol-3-yl)methyl)-7-oxo-6-(1-oxo-2-((tetrahydrofuran-2-yl)methyl)-1,2,3,4-tetrahydroisoquinolin-7-yl)-4,5,6,7-tetrahydro-1H-pyrazolo[3,4-c]pyridine-3-carboxamide] belongs 100 to 300 nM; to `CCN1CCc2ccc(N3CCc4c(C(=O)NC5C6COCC65)nn(-c5cccc(Cl)c5)c4C3=O)cc2C1` (stereo not shown) [Example 1093, N-(3-oxabicyclo[3.1.0]hexan-6-yl)-1-(3-chlorophenyl)-6-(2-ethyl-1,2,3,4-tetrahydroisoquinolin-7-yl)-7-oxo-4,5,6,7-tetrahydro-1H-pyrazolo[3,4-c]pyridine-3-carboxamide], 100 to 300 nM; to `COCCCN1CCc2ccc(N3CCc4c(C(=O)NCC5CC5)nn(-c5cccc(Cl)c5)c4C3=O)cc2C1` [Example 1053, 1-(3-chlorophenyl)-N-(cyclopropylmethyl)-6-(2-(3-methoxypropyl)-1,2,3,4-tetrahydroisoquinolin-7-yl)-7-oxo-4,5,6,7-tetrahydro-1H-pyrazolo[3,4-c]pyridine-3-carboxamide], 100 to 300 nM. To `CN1C(=O)CCCc2ccc(N3CCc4c(C(=O)NCC5CC5)nn(-c5cccc(Cl)c5)c4C3=O)cc21` [Example 1242, 1-(3-chlorophenyl)-N-(cyclopropylmethyl)-6-(1-methyl-2-oxo-2,3,4,5-tetrahydro-1H-benzo[b]azepin-8-yl)-7-oxo-4,5,6,7-tetrahydro-1H-pyrazolo[3,4-c]pyridine-3-carboxamide] belongs 3000 to 10000 nM.

On to `O=C(NCC1CC1)c1nn(-c2cccc(Cl)c2)c2c1CCN(c1ccc3c(c1)CN(CC1CCCC1)CC3)C2=O` [Example 1102, 1-(3-chlorophenyl)-6-(2-(cyclopentylmethyl)-1,2,3,4-tetrahydroisoquinolin-7-yl)-N-(cyclopropylmethyl)-7-oxo-4,5,6,7-tetrahydro-1H-pyrazolo[3,4-c]pyridine-3-carboxamide], for which the IC50 fell in the range of 300 to 1000 nM. Regarding `Cc1nc2c(C(=O)NCC3CC3)nn(-c3cccc(Cl)c3F)c2c(=O)n1-c1ccc2c(c1)C(=O)N(C)CCO2` [Example 3023, 1-(3-chloro-2-fluorophenyl)-N-(cyclopropylmethyl)-5-methyl-6-(4-methyl-5-oxo-2,3,4,5-tetrahydrobenzo[f][1,4]oxazepin-7-yl)-7-oxo-6,7-dihydro-1H-pyrazolo[4,3-d]pyrimidine-3-carboxamide], the IC50 was in the range of 300 to 1000 nM. `O=C(NCc1cnccc1Cl)c1nn(-c2cccc(Cl)c2)c2c1CCN(c1cccc(CN3CCCCC3)c1)C2=O` [Example 1174, 1-(3-chlorophenyl)-N-((4-chloropyridin-3-yl)methyl)-7-oxo-6-(3-(piperidin-1-ylmethyl)phenyl)-4,5,6,7-tetrahydro-1H-pyrazolo[3,4-c]pyridine-3-carboxamide]: the IC50 was in the range of 100 to 300 nM. With `Cc1cc(CNC(=O)c2nn(-c3cccc(Cl)c3)c3c2CCN(c2ccc4c(c2)C(=O)N(CCO)CCO4)C3=O)nn1C` [Example 1288, 1-(3-Chlorophenyl)-N-[(1,5-dimethylpyrazol-3-yl)methyl]-6-[4-(2-hydroxyethyl)-5-oxo-2,3-dihydro-1,4-benzoxazepin-7-yl]-7-oxo-4,5-dihydropyrazolo[3,4-c]pyridine-3-carboxamide], the IC50 is 10 to 100 nM. As to `O=C(NCC1CC1)c1nn(-c2cccc(Cl)c2)c2c1CCN(c1cccc(N3CCOCC3=O)c1)C2=O` [Example 1313, 1-(3-chlorophenyl)-N-(cyclopropylmethyl)-7-oxo-6-(3-(3-oxomorpholino)phenyl)-4,5,6,7-tetrahydro-1H-pyrazolo[3,4-c]pyridine-3-carboxamide], the IC50 was 3000 to 10000 nM. As to `CN1CCc2ccc(N3CCc4c(C(=O)NCC5CC5)nn(-c5cc(Cl)cc(C(N)=O)c5)c4C3=O)cc2C1=O` [Example 2014, 1-(3-carbamoyl-5-chlorophenyl)-N-(cyclopropylmethyl)-6-(2-methyl-1-oxo-1,2,3,4-tetrahydroisoquinolin-7-yl)-7-oxo-4,5,6,7-tetrahydro-1H-pyrazolo[3,4-c]pyridine-3-carboxamide], the IC50 fell in the range of 300 to 1000 nM.

`Cc1cc(N2CCc3c(C(=O)NCC4CC4)nn(-c4cccc(Cl)c4)c3C2=O)cc2c1CCN(C)C2` [Example 1048, 1-(3-Chlorophenyl)-N-(cyclopropylmethyl)-6-(2,5-dimethyl-1,2,3,4-tetrahydroisoquinolin-7-yl)-7-oxo-4,5,6,7-tetrahydro-1H-pyrazolo[3,4-c]pyridine-3-carboxamide]: the IC50 lay within 300 to 1000 nM. The result for `O=C(NCc1cc(C2CC2)[nH]n1)c1nn(-c2cccc(Cl)c2)c2c1CCN(c1ccc3c(c1)C(=O)N(CCO)CC3)C2=O` [Example 1259, 1-(3-chlorophenyl)-N-((5-cyclopropyl-1H-pyrazol-3-yl)methyl)-6-(2-(2-hydroxyethyl)-1-oxo-1,2,3,4-tetrahydroisoquinolin-7-yl)-7-oxo-4,5,6,7-tetrahydro-1H-pyrazolo[3,4-c]pyridine-3-carboxamide] reads 100 to 300 nM.
